Results as given in patent publication WO2016169030A1, “Fumarate and crystals of pyridylamine compound” (priority 2015, dated 2016).

Assay: Humidity (wettability/hygroscopicity) test, Chinese Pharmacopoeia 2010
Format: physicochemical
Details: Guidelines for Drug Wetting Test, Chinese Pharmacopoeia 2010 Edition 2 Appendix XIX J; Table 2

## CC(=O)Nc1ncc(-c2cnn(C3CCNCC3)c2)cc1O[C@H](C)c1c(Cl)ccc(F)c1Cl.O=C(O)/C=C/C(=O)O [Fumarate]
  Wet weight gain: 0.80%

## O=C(O)CC(O)C(=O)O (stereo not drawn) [Malate]
  Wet weight gain: 7.83%

## CC(=O)Nc1ncc(-c2cnn(C3CCNCC3)c2)cc1O[C@H](C)c1c(Cl)ccc(F)c1Cl [Compound of formula (II), N-Acetyl-3-[(1R)-1-(2,6-dichloro-3-fluorophenyl)ethoxy]-5-[1-(4-piperidinyl)-1H-pyrazol-4-yl]-2-pyridinamine]
  Wet weight gain: 61.75%
